Patent USRE38551E1, “Anticonvulsant enantiomeric amino acid derivatives” (priority 1996, dated 2004)

Columns and labels:
[1] = tested on: maximal electroshock (MES) induced seizure; experiment: maximal electroshock (MES) seizure test, mice (ip); type: in vivo; conditions: for PI protective index (TD50/MES ED50) / MES, ED50: mice; for PI protective index (TD50/MES ED50) / MES, ED50 / ED50: ip; for MES, ED50: at time of peak effect (hours in brackets); for Ratio to MES: i.p., Neurotox/MES (Table 6); for ED50: Mus musculus
Source text: (§1) Compounds were screened for anticonvulsant activity in both male albino Carthworth Farms No. 1 mice (ip route) and male albino Sprague Dawley rats [oral (po) route]. Activity was established using the electrical (maximal electroshock or MES) test. In the MES test, a drop of electrolyte solution with anesthetic (0.5% butacaine hemisulfate in 0.9% sodium chloride) was used in the eyes of the animals prior to positioning the corneal electrodes and delivery of current. […] Protection endpoints were defined as the abolition of the hind limb tonic extensor component of the induced seizure. In mice, effects of compounds on forced spontaneous motor activity were determined using the rotorod test. […] Normally under these conditions, mice maintain their balance almost indefinitely. In rats, motor impairment is assessed by observing for overt evidence of ataxia, abnormal gait and stance, and/or loss of placing response and muscle tone. In the mouse identification screening study all compounds were given at three dose levels (30, 100, 300 mg/kg) and two time periods (0.5 hours, 4 hours). Typically, in the MES seizures test one animal was tested at 30 mg/kg and 300 mg/kg, and three animals at 100 mg/kg. In the rotored toxicity test four animals were tested at 30 mg/kg, and 300 mg/kg, and eight animals at 100 mg/kg.
(§2) The quantitative determination of the median effective (ED50) and toxic doses (TD50) was conducted at previously calculated times of peak effect. Groups of at least eight animals were tested using different doses of test compound until at least two points wee determined between 100 and 0% protection and minimal motor impairment.

[2] = tested on: motor impairment (rotorod test); experiment: rotorod neurologic toxicity test, mice (ip); type: in vivo; conditions: for tox, TD50: mice, ip, rotorod test, at time of peak effect
Source text: as §1
as §2, with “impairment. The dose of candidate substance required to produce the defined end-point in 50% of the animals in each test and the 95% confidence interval was calculated.” for “impairment.”

liver = liver toxicity evaluation of D-furyl derivative, oral gavage to rats; type: in vivo
Method: Compound C, i.e., D-(−)-α-acetamido-N-benzyl-2-furanacetylamide was evaluated for liver toxicity using the procedures described hereinabove. More specifically, various dosages such as 25 mg/kg, 100 mg/kg, 500 mg/kg of the drug was administered by oral gavage to rats for a set period of time. The rats were housed separately. The rats were periodically viewed for mortality and moribundity. At the termination of the study, the surviving rats were anesthetized, and exsanguinated under anesthesia.

[3] = tested on: maximal electroshock (MES) induced seizure; experiment: maximal electroshock (MES) seizure test, rats (po); type: in vivo; conditions: for Ratio to MES: oral, Neurotox/MES (Table 6); for PI protective index (TD50/MES ED50) / MES, ED50 / ED50: po
Source text: as §1, §2

motor impairment = motor impairment (ataxia, gait, stance) observation, rats (po); type: in vivo; conditions: rat, po, at time of peak effect
Source text: (§3) Compounds were screened for anticonvulsant activity in both male albino Carthworth Farms No. 1 mice (ip route) and male albino Sprague Dawley rats [oral (po) route]. Activity was established using the electrical (maximal electroshock or MES) test. In the MES test, a drop of electrolyte solution with anesthetic (0.5% butacaine hemisulfate in 0.9% sodium chloride) was used in the eyes of the animals prior to positioning the corneal electrodes and delivery of current. A 60 cycle alternating current was administered for 0.2 sec. in both species, 50 mA in mice and 150 mA in rats. Protection endpoints were defined as the abolition of the hind limb tonic extensor component of the induced seizure. In mice, effects of compounds on forced spontaneous motor activity were determined using the rotorod test. […] Normally under these conditions, mice maintain their balance almost indefinitely. In rats, motor impairment is assessed by observing for overt evidence of ataxia, abnormal gait and stance, and/or loss of placing response and muscle tone. In the mouse identification screening study all compounds were given at three dose levels (30, 100, 300 mg/kg) and two time periods (0.5 hours, 4 hours). Typically, in the MES seizures test one animal was tested at 30 mg/kg and 300 mg/kg, and three animals at 100 mg/kg. In the rotored toxicity test four animals were tested at 30 mg/kg, and 300 mg/kg, and eight animals at 100 mg/kg.
as §2, with “impairment. The dose of candidate substance required to produce the defined end-point in 50% of the animals in each test and the 95% confidence interval was calculated.” for “impairment.”

[4] = rotorod neurologic toxicity test, mice (ip); type: in vivo; conditions: male, ip; for TD50: Carthworth Farms No. 1, mouse, in vivo, mice, rotorod test, at time of peak effect, read-out: tox, TD50
Source text: as §1
as §2, with “impairment. The dose of candidate substance required to produce the defined end-point in 50% of the animals in each test and the 95% confidence interval was calculated.” for “impairment.”

[5] = motor impairment (ataxia, gait, stance) observation, rats (po); type: in vivo; conditions: male, Sprague Dawley, in vivo, rat; for TD50: po, at time of peak effect, read-out: tox, TD50
Source text: as §3
as §2, with “impairment. The dose of candidate substance required to produce the defined end-point in 50% of the animals in each test and the 95% confidence interval was calculated.” for “impairment.”

hexobarbital sleep time = hexobarbital sleep time test; type: in vivo; conditions: rats, 5 daily doses of 48 mg/kg
Method: All rats subjected to the 5-day tolerance studies were maintained in their home cage for 24 hours and then subjected to the hexobarbital sleep time test (day 6). Each rat in each of the 3 groups was given 100 mg/kg of hexobarbital (i.p.) and the sleep time measured to the nearest minute. The mean sleep time and S.E. for each group were calculated.

liver microsomal system = experiment: 7-day liver microsomal studies; type: in vivo, rats
Method: Two of the three groups of animals subjected to the hexobarbital sleep time test (chronically treated and vehicle control groups) were continued on their respective original treatment regimen for two days (days 6 and 7) and 24 hours later (day 8) subjected to liver microsomal studies. The rats were decapitated and the livers perfused with 0.9% sodium chloride solution. The livers were removed, weighed, and homogenized in 0.25M sucrose. Microsomes were prepared and their drug metabolizing capabilities (microsomal protein yield; cytochrome P-450 concentration; p-nitroanisole O-demethylase and NADPH cytochrome c reductase activities; norbenzphetamine MI complex formation; and glucuronyl transferase, erythromycin demethylase, and ethylmorphine demethylase activities) measured (Arch. Biochem. Biophys. 143: 318-329, 1971).

[6] = tested on: maximal electroshock (MES) induced seizure; experiment: 5-day chronic treatment tolerance study (MES test); type: in vivo; conditions: rats, 5 daily doses of 48 mg/kg
Method: Compound C, i.e., N-acetyl-D, L-phenylglycine N-benzylamide was subjected to 5-day chronic treatment on anticonvulsant activity (maximal electroshock). 3 groups of 8 animals each were treated as follows. One group was given the MES ED50 of the test drug for 5 days; the second group was given the requisite volume of the vehicle (0.04 ml/10 g body wt.) for 4 days and a single dose (MES ED50) of the test drug on day 5; and the third group was given the requisite volume of the vehicle daily for 5 days. At the time of peak effect of the candidate substance on day 5, all groups were subjected to the MES test and the number of animals protected recorded. Seizure components of the unprotected animals were timed to the nearest 10th of a second and the extensor/flexor (E/F) ratio, S.E., and p value determined. Since extensor duration decreases and flexor duration increases as a maximal seizure is attenuated, the E/F ratio provides a measure of seizure severity.

[7] = rat, at time of peak effect, read-out: MES, ED50
[8] = liver microsomes, rats, p.o., 48 mg/kg, Treated 7 Days
[9] = rats, p.o., 48 mg/kg, Treated 7 Days

CC(=O)N[C@@H](C)C(=O)NCc1ccccc1 [compound 3, N-Acetyl-L-alanine-N′-benzylamide]
PI protective index (TD50/MES ED50) [1]: 1.5
MES, ED50 [1]: 548 [0.5] mg/kg
tox, TD50 [2]: 841 [0.5] mg/kg

CC(=O)N[C@@H](C(=O)NCc1ccccc1)c1ccco1 [compound 6, (D)-(−)α-Acetamido-N-benzyl-2-furanacetamide]
Safety Ratio daily dose; MES (liver; rat, oral, 25 mg/kg/day × 30 days vs oral MES ED50): 12.7
safety ratio for histologic signs of liver toxicity (hepatocellular necrosis) (liver; rats): 12.7
hepatocellular necrosis (liver; rats, 100 and 25 mg/kg, treated for 13 weeks): hepatocellular necrosis was evident
PI protective index (TD50/MES ED50) [1]: >.2
MES, ED50 [1]: 3.3 mg/kg
MOUSE anticonvulsant dose ED50 MES ([1]; mouse, i.p. (Table 6)): 3.3 mg/kg
Ratio to MES ([1]; mouse): 7.2
tox, TD50 [2]: 23.8 mg/kg
MOUSE ED50 Neurotox ([2]; mouse, i.p., rotorod test at peak effect (Table 6)): 23.8 mg/kg
RAT anticonvulsant ED50 MES ([3]; rat, oral (Table 6)): 1.97 mg/kg
Ratio to MES ([3]; rat): 175

CC(=O)N[C@H](C(=O)NCc1ccccc1)c1ccco1 [compound 7, (L)-(+)-α-Acetamido-N-benzyl-2-furanacetamide]
MES, ED50 [1]: >25. mg/kg
tox, TD50 [2]: >200 mg/kg

COCC(NC(C)=O)C(=O)NCc1ccccc1 (racemic) [compound 9, N-Benzyl 2-Acetamido-3-methoxypropionamide(racemic mixture)]
tox, TD50 (motor impairment): 386.8 [1] mg/kg

CC(=O)NC(CO)C(=O)NCc1ccccc1 (stereo not shown) [compound 8, N-Benzyl 2-Acetamidohydracrylamide]
ED50 ([1]; read-out: MES, ED50): 100 to 300 mg/kg
TD50 [4]: > 300 mg/kg
melting point: 201 to 203 °C

COC[C@@H](NC(C)=O)C(=O)NCc1cccc(F)c1 [Ex. 3, R-N-(3-Fluorobenzyl)2-Acetamide-3-Methoxypropionamide]
PI protective index (TD50/MES ED50) [1]: 6.7
MES, ED50 [1]: 6.9 [0.25] mg/kg
tox, TD50 (motor impairment): >396 [0.5] mg/kg
tox, TD50 [2]: 46.3 [0.25] mg/kg
PI protective index (TD50/MES ED50) ([3]; rat): >57.7
MES, ED50 ([3]; rat, at time of peak effect): 6.9 [0.5] mg/kg

COC[C@H](NC(C)=O)C(=O)NCc1ccccc1 [compound 11, (S)-N-Benzyl 2-Acetamido-3-methoxypropionamide]
ED50 ([1]; read-out: MES, ED50): 100 to 300 mg/kg
TD50 [5]: > 30 mg/kg
TD50 [4]: > 300 mg/kg
ED50 [3, 7]: > 30 mg/kg

CC(=O)NC(C(=O)NCc1ccccc1)c1ccco1 (stereo not drawn) [compound 5, (D,L)-α-Acetamido-N-benzyl-2-furanacetamide]
PI protective index (TD50/MES ED50) [1]: >3.9
MES, ED50 [1]: 10.3 mg/kg
tox, TD50 [2]: ˜40 mg/kg

CC(=O)NC(C(=O)NCc1ccccc1)c1ccccc1 (racemic) [compound 13, N-Acetyl-D,L-phenylglycine-N-benzylamide]
effect of chronic treatment on hexobarbital sleep time (hexobarbital sleep time): does not affect
Cytochrome P-450 (liver microsomal system; [8]): 0.71 ± 0.06 nmol/mg
Erythromycin demethylase (liver microsomal system; [8]): 0.64 ± 0.07 nmol/mg/min
Ethylmorphine demethylase (liver microsomal system; [8]): 6.75 ± 0.37 nmol/mg/min
Glucoronyl Transferase (liver microsomal system; [8]): 9.77 ± 0.23 nmol/mg/min
NADPH Cytochrome c reductase (liver microsomal system; [8]): 160.3 ± 5.2 nmol/mg/min
Norbenzphetamine MI Complex (liver microsomal system; [8]): 0.023 ± 0.003 nmol/mg/min
Total Protein (liver microsomal system; [8]): 31.7 ± 1.4 mg
p-nitroanisole O-demethylase (liver microsomal system; [8]): 0.82 ± 0.12 nmol/mg/min
Liver Pathology Report (liver microsomal system; rat, oral, 48 mg/kg/day × 7 days): liver enzyme induction
Safety Ratio daily dose; MES (liver microsomal system; rat, oral, 48 mg/kg/day × 7 days vs oral MES ED50): −1
induction of liver microsomal enzyme systems (liver microsomal system; rats, chronic administration, 48 mg/kg, 7 days): induces some liver microsomal enzyme systems
Body Weight (liver microsomal system; [9]): 146.3 ± 3.8 g
Liver Weight (liver microsomal system; [9]): 8.54 ± 0.26 g
ED50 ([1]; read-out: MES, ED50): 20.3 mg/kg
ED50 ([1]; read-out: MOUSE anticonvulsant dose ED50 MES): 20.3 mg/kg
PI protective index (TD50/MES ED50) [1]: 4.77
Ratio to MES ([1]; mouse): 4.8
ED50 ([5]; oral (Table 6), read-out: RAT ED50 Neurotox): > 1000 mg/kg
TD50 [5]: > 1000 mg/kg
effect of chronic treatment on anticonvulsant activity [6]: does not affect
ED50 ([4]; Carthworth Farms No. 1, in vivo, mouse, i.p., rotorod test at peak effect (Table 6), read-out: MOUSE ED50 Neurotox): 96.9 mg/kg
TD50 [4]: 96.9 mg/kg
ED50 ([3]; Rattus norvegicus, read-out: RAT anticonvulsant ED50 MES): 48.3 mg/kg
ED50 ([3]; Rattus norvegicus, Rats, p.o., TPE 4 hrs (Table 4 head), read-out: ED50): 48 mg/kg
Ratio to MES ([3]; rat): 20.7
PI protective index (TD50/MES ED50) ([3]; rat): >20.7
ED50 [3, 7]: 48.3 mg/kg

CC(=O)N[C@H](C)C(=O)NCc1ccccc1 [compound 2, N-Acetyl-D-alanine-N′-benzylamide]
PI protective index (TD50/MES ED50) [1]: 3.9
MES, ED50 [1]: 54.8 [0.5] mg/kg
tox, TD50 [2]: 2.14 [0.5] mg/kg
PI protective index (TD50/MES ED50) ([3]; rat): >35.2
MES, ED50 ([3]; rat, at time of peak effect): 28.4 [4] mg/kg

COC(NC(C)=O)C(=O)NCc1ccccc1 (racemic) [compound 4, D,L-2-Acetamido-N-benzyl-2-methoxyacetamide]
MES, ED50 [1]: 98.30 mg/kg

CC(=O)N[C@H](CO)C(=O)NCc1ccccc1 [compound 12, (R)-N-Benzyl 2-Acetamidohydracylamide]
PI protective index (TD50/MES ED50) [1]: >9.4
MES, ED50 [1]: 53.4 [2] mg/kg
tox, TD50 [2]: >500 [2] mg/kg

COC[C@@H](NC(C)=O)C(=O)NCc1ccc(F)cc1 [Ex. 4, (R)-N-(4-Fluorobenzyl)2-Acetamido-3-Methoxypropanamide]
ED50 ([1]; read-out: MES, ED50): 4.2 mg/kg
PI protective index (TD50/MES ED50) [1]: 6.6
TD50 [5]: 125 to 250 mg/kg
tox, TD50 [2]: 27.8 [0.25] mg/kg
melting point: 144 to 145 °C
ED50 [3, 7]: 2.6 mg/kg
